Holding throughout (format): in vivo
Experiment [1] deals with Diabrotica balteata (corn root worm). Put plainly: Activity against Diabrotica balteata, larvicide, feeding/residual contact activity, preventive (Example B2). To be noted: 120 h, maize sprouts sprayed, L2 larvae, 5 days incubation, read-out: activity (larval mortality, growth regulation). The protocol: (§1) (Larvicide, Feeding/Residual Contact Activity, Preventive)
Maize sprouts, placed on an agar layer in 24-well micro titer plates (MTP) are treated with test solutions by spraying. After drying, the MTPs are infested with larvae (L2, 6-10 per well). After an incubation period of 5 days, samples are checked for larval mortality, and growth regulation.

Experiment [2] deals with Spodoptera littoralis (Egyptian cotton leaf worm). Put plainly: Activity against Spodoptera littoralis, larvicide, feeding/residual contact activity, preventive (Example B1). To be noted: foliar, 72 h, cotton leaf discs sprayed, L1 larvae, 3 days after treatment, read-out: activity (mortality, repellent effect, feeding behaviour, growth regulation). From the text:
(Larvicide, Feeding/Residual Contact Activity, Preventive) Cotton leaf discs are placed on agar in a 24-well microtiter plate and sprayed with test solutions. After drying, the leaf discs are infested with 5 L1 larvae. The samples are checked for mortality, repellent effect, feeding behaviour, and growth regulation 3 days after treatment (DAT).

Experiment [3] shares this test system. Put plainly: Activity against Spodoptera littoralis, systemic activity (Example B3). As to conditions: 120 h, systemic via lettuce roots in agar, 5 days after infestation, read-out: activity (mortality, repellent effect, feeding behavior, growth regulation). An excerpt:
Test compounds were applied by pipette into 24 well plates and mixed with agar. Lettuce seeds were placed on the agar and the multi well plate is closed by another plate which contains also agar. After 7 days the roots have absorbed the compound and the lettuce has grown into the lid plate. The lettuce leaves were now cut off into the lid plate. Spodoptera eggs were pipetted through a plastic stencil on a humid gel blotting paper and the plate closed with it. The samples are checked for mortality, repellent effect, feeding behavior, and growth regulation 5 days after infestation.

Experiment [4] relates to Plutella xylostella (diamond back moth). Briefly: Activity against Plutella xylostella, larvicide, feeding/residual contact activity, preventive (Example B4). To be noted: 120 h, artificial diet, L2 larvae, 5 days incubation, read-out: activity (larval mortality, antifeedant, growth regulation). The protocol:
as §1
24-well microtiter plate (MTP) with artificial diet was treated with test solutions by pipetting. After drying, the MTPs were infested with L2 larvae (10-15 per well). After an incubation period of 5 days, samples were checked for larval mortality, antifeedant and growth regulation.

The test system of experiment [5] is Myzus persicae (green peach aphid). Put plainly: Activity against Myzus persicae, feeding/residual contact activity, preventive, mixed population (Example B5). As to conditions: foliar, 144 h, sunflower leaf discs sprayed, mixed-age aphids, 6 DAT. The procedure: (Feeding/Residual Contact Activity, Preventive), Mixed Population
Sunflower leaf discs were placed on agar in a 24-well microtiter plate and sprayed with test solutions.
After drying, the leaf discs were infested with an aphid population of mixed ages. After an incubation period of 6 DAT, samples were checked for mortality and special effects (e.g. phytotoxicity).

Experiment [6] shares this test system. Put plainly: Activity against Myzus persicae, systemic/feeding activity, curative, mixed population (Example B6). As to conditions: 144 h, roots of infested pea seedlings in test solution, 6 days after introduction. From the text: (Systemic/Feeding Activity, Curative), Mixed Population
Roots of pea seedlings, infested with an aphid population of mixed ages, were placed directly in the test solutions. 6 days after introduction, samples were checked for mortality and special effects on the plant.

Experiment [7] concerns Aedes aegypti (yellow fever mosquito). Briefly: whole plant or invertebrate. As to conditions: after 48 h, application rate of 200 ppm in ethanol, adult females, read-out: control of Aedes aegypti (mortality). The protocol: Test solutions, at an application rate of 200 ppm in ethanol, were applied to 12-well tissue culture plates. Once the deposits were dry, five, two to five days old adult female Aedes aegypti were added to each well, and sustained with a 10% sucrose solution in a cotton wool plug. Assessment of knockdown was made one hour after introduction, and mortality was assessed at 24 and 48 hours after introduction.

For experiment [8], the system named is Bemisia tabaci (cotton white fly). Put plainly: Activity against Bemisia tabaci, adulticide contact activity, preventative (Example B7). As to conditions: foliar, 168 h, cotton leaf discs sprayed, adult white flies, 7 DAT. The procedure:
(Adulticide Contact Activity, Preventative), Adult
Cotton leaf discs were placed on agar in a 24-well microtiter plate and sprayed with test solutions. After drying, the leaf discs were infested with adult white flies. After an incubation period of 7 DAT, samples were checked for mortality and special effects (e.g. phytotoxicity).

The subject of experiment [9] is Rhopalosiphum padi (bird cherry oat aphid). Briefly: Seed treatment activity against Rhopalosiphum padi on barley (Example B8). To be noted: after 28 days, initial loading of 0.3 mg a.i. per seed. The procedure:
Seed Treatment Activity Against Rhopalosiphum padi (Bird Cherry Oat Aphid) (Seed Treatment Systemic/Feeding Activity on Barley, Preventive, Initial and Residual Activity (Infestation 2 and 4 Weeks after Sowing)), Mixed Population
A treated barley seed is sown in a 350 ml pot filled with soil. Two weeks after sowing phytotoxicity is estimated and expressed in percentage compared to the control. Furthermore the barley seedling is infested with an aphid population of mixed stages. After an incubation period of seven days the grade of efficacy compared to the control is estimated and expressed in percentage. Treatments with all replicates having a level of efficacy over 90% are re-infested with aphids 28 days after sowing for determination of residual activity. Assessment procedures remain the same as described above.

Structures are written as SMILES.

`CC/S(=N\C#N)c1cc(C(F)(F)F)cnc1-c1nc2cc(C(F)(F)F)cnc2n1C` (stereo not shown) [P1.1, [ethyl-[2-[3-methyl-6-(trifluoromethyl)imidazo[4,5-b]pyridin-2-yl]-5-(trifluoromethyl)-3-pyridyl]-λ^4-sulfanylidene]cyanamide]: in experiment [1], the mortality at 400 ppm is more than 80%.

As to `CCS(=O)(=NC#N)c1cc(C(F)(F)F)cnc1-c1nc2cc(C(F)(F)F)cnc2n1C` (stereo not shown) [P1.2, [ethyl-[2-[3-methyl-6-(trifluoromethyl)imidazo[4,5-b]pyridin-2-yl]-5-(trifluoromethyl)-3-pyridyl]-oxo-λ^6sulfanylidene]cyanamide], the mortality at 400 ppm in [2] and in experiment [1] was more than 80% each time.

Consider `CCS(=O)(=NC(=O)C(F)(F)F)c1cc(C(F)(F)F)cnc1-c1nc2cc(C(F)(F)F)cnc2n1C` (stereo not shown) [P1.3, N-[ethyl-[2-[3-methyl-6-(trifluoromethyl)imidazo[4,5-b]pyridin-2-yl]-5-(trifluoromethyl)-3-pyridyl]-oxo-λ^6-sulfanylidene]-2,2,2-trifluoro-acetamide], for which the mortality at 400 ppm in experiment [2], in experiment [1], in [4] and in [5] was more than 80% throughout. In addition, the mortality at 12.5 ppm in [3] is not below 80%. In addition, the mortality at 24 ppm in [6] is not below 80%. Also, the mortality at 200 ppm in experiment [7] was not below 80%.

`CCS(=N)(=O)c1cc(C(F)(F)F)cnc1-c1nc2cc(C(F)(F)F)cnc2n1C` (stereo not shown) [P1.4, ethyl-imino-[2-[3-methyl-6-(trifluoromethyl)imidazo[4,5-b]pyridin-2-yl]-5-(trifluoromethyl)-3-pyridyl]-oxo-λ^6-sulfane]: the mortality at 400 ppm in experiment [2], in experiment [4], in experiment [5] and in experiment [8] was more than 80% in each case. For the same molecule, the mortality at 12.5 ppm in [3] is not below 80%. The molecule also came in with a mortality at 24 ppm in experiment [6] not below 80%. In experiment [9], the “control of Rhopalosiphum padi (efficacy compared to the control)” value is listed as “at least 80%”.

For `CCS(=O)(=NC(N)=O)c1cc(C(F)(F)F)cnc1-c1nc2cc(C(F)(F)F)cnc2n1C` (stereo not shown) [P1.5, [ethyl-[2-[3-methyl-6-(trifluoromethyl)imidazo[4,5-b]pyridin-2-yl]-5-(trifluoromethyl)-3-pyridyl]-oxo-λ^6sulfanylidene]urea], the mortality at 400 ppm in experiment [1] is more than 80%. Also, the mortality at 200 ppm in [7] is not below 80%.

In the case of `CCS(=O)(=NC)c1cc(C(F)(F)F)cnc1-c1nc2cc(C(F)(F)F)cnc2n1C` (stereo not shown) [P1.6, ethyl-methylimino-[2-[3-methyl-6-(trifluoromethyl)imidazo[4,5-b]pyridin-2-yl]-5-(trifluoromethyl)-3-pyridyl]-oxo-λ^6-sulfane], the mortality at 400 ppm in experiment [2], in experiment [1], in experiment [4], in experiment [5] and in experiment [8] was more than 80% each time. For the same molecule, in experiment [3], the mortality at 12.5 ppm is not below 80%. The molecule also displayed a mortality at 24 ppm in experiment [6] not below 80%. The mortality at 200 ppm in [7] was not below 80%.

Regarding `CCC(=O)N=S(=O)(CC)c1cc(C(F)(F)F)cnc1-c1nc2cc(C(F)(F)F)cnc2n1C` (stereo not shown) [P1.7, N-[ethyl-[2-[3-methyl-6-(trifluoromethyl)imidazo[4,5-b]pyridin-2-yl]-5-(trifluoromethyl)-3-pyridyl]-oxo-λ^6-sulfanylidene]propanamide], the mortality at 400 ppm in experiment [2], in [4], in experiment [5] and in experiment [8] was more than 80% throughout. Further, in [3], the mortality at 12.5 ppm was not below 80%. In addition, the mortality at 200 ppm in experiment [7] is not below 80%.

`CCS(=O)(=NC(=O)OC)c1cc(C(F)(F)F)cnc1-c1nc2cc(C(F)(F)F)cnc2n1C` (stereo not shown) [P1.8, methyl N-[ethyl-[2-[3-methyl-6-(trifluoromethyl)imidazo[4,5-b]pyridin-2-yl]-5-(trifluoromethyl)-3-pyridyl]-oxo-λ^6-sulfanylidene]carbamate]: the mortality at 400 ppm in [2], in experiment [4], in [5] and in experiment [8] was more than 80% in each case. For the same molecule, the mortality at 12.5 ppm in experiment [3] is not below 80%. This molecule returned a mortality at 24 ppm in [6] not below 80%. Also, the mortality at 200 ppm in experiment [7] was not below 80%.

Turning to `CCS(=O)(=NC=O)c1cc(C(F)(F)F)cnc1-c1nc2cc(C(F)(F)F)cnc2n1C` (stereo not shown) [P1.10, N-[ethyl-[2-[3-methyl-6-(trifluoromethyl)imidazo[4,5-b]pyridin-2-yl]-5-(trifluoromethyl)-3-pyridyl]-oxo-λ^6sulfanylidene]formamide], the mortality at 400 ppm in [2], in [4], in experiment [5] and in [8] was more than 80% throughout. Besides, the mortality at 12.5 ppm in [3] is not below 80%. For the same molecule, the mortality at 24 ppm in [6] was not below 80%.

What is called mortality is the share of the test organisms that died.

(Values after patent US9522913B2, “Pesticidally active bicyclic heterocycles with sulphur containing substituents” (Syngenta Participations AG, priority 2013, dated 2016).)
